As a reminder, the IC50 is the concentration that inhibits the measured activity by half. Low values mean higher potency, high ones lower potency.

Counter-ions that a name gives are not always drawn.

For the assay, the target named is T1, DP receptor (Homo sapiens, UniProt Q13258).
T1 construct: the human cell line LS174T, which expresses the endogenous DP receptor; endogenous in cells; host or cells: LS174T human cell line
T1 sequence (Q13258 1-359): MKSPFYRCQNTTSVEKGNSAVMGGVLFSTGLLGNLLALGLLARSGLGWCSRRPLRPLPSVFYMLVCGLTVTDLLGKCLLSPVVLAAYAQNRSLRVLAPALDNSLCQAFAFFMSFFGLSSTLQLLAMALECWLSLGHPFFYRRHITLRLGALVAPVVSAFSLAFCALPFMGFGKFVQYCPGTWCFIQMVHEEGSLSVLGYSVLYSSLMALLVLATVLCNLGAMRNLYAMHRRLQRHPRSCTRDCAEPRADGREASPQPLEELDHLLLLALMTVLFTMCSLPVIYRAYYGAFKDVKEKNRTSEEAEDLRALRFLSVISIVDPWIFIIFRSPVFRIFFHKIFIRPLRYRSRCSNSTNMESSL
Put plainly: SPA cAMP assay in human LS174 T cells (human DP functional assay). The conditions noted are these: inhibition of PGD2 (15 nM final) stimulated cAMP, LS174T cells expressing endogenous DP receptor. It counts as cell-based. The procedure:
The inhibitory effects of the compounds according to the invention are assessed in a human DP functional assay. A cAMP assay is employed using the human cell line LS174T, which expresses the endogenous DP receptor.
Protocol for SPA cAMP Assay in Human LS174 T Cells
• 1) Add equal volumes of tracer, antiserum and SPA anti-rabbit reagent to a bottle, ensuring that a sufficient volume of this mixture is prepared for the desired number of wells (150 μL/well). • 2) Mix thoroughly. • 3) This immunoreagent solution should be freshly prepared before each assay and not re-used.
Add 50 μL of […] IBMX into 100 mL PBS to make a final concentration of 100 μM and sonicate at 30° C. for 20 minutes.
Before each assay, it is freshly prepared. Add 3 μL of 10 mM stock solution to 20 mL DMSO, mix it thoroughly, and transfer 10 mL to 40 mL PBS.
Compound dilution is carried out in Biomex 2000 (Beckman) using Method 1_cAMP DP 11 points.
5 μL of each compound from the 10 mM stock compound plates is transferred to the wells of a 96-well plate respectively as below.
Fill the plate with 45 μL of DMSO except column 7 is filled with 28 μL DMSO. Pipette column 1 thoroughly, and transfer 12 μL into column 7 parallel. Perform 1:10 serial dilution from column 1 to column 6 and from column 7 to column 11 by transfer 5 μL to 45 μL DMSO to make following concentrations:
Fill a new 96-well plate with 247.5 μL of compound dilution buffer. Transfer 2.5 μL of serially diluted compounds from above plate to the new plate (1:100 dilution) as following:
Cell Growth • 1. […] Remove growth medium from cells. Cells in T165 flask are washed twice with 4 mL Trypsin followed by incubation at 37° C. and 5% CO2 for 3 minutes. • 4. Add 10 mL of medium and pipette thoroughly to separate the cells and count the cells. • 5. […] Assay Procedure Day 1 • Seed 45,000 cells/well in 200 μL medium in 96-well plates. Incubate the cell plate at 37° C., 5% CO2 and 95% humidity overnight. Day 2 • 1. Perform compound dilution. • 2. Prepare assay buffer, lysis buffer 1 & 2, PGD2 and standard. • 3. Aspirate media from the cells and add 100 μL of compound solution using Zymark Sciclone-ALH/FD protocol cAMP DP. • 4. Incubate the cells at 37° C., 5% CO2 and 95% humidity for 15 minutes. • 5. […] Aspirate media from the cells and add 50 μL of lysis buffer 1 using Zymark protocol cAMP DP lysis, and incubate at room temperature with shaking for 30 minutes. • 7. Add 150 μL immunoreagent to all wells (a total volume of 200 μL/well). • 8. Seal the plates and shake for 2 minutes, put into the chamber of the Wallac microtitre plate μ scintillation counter for 16 hours. […] Data Processing Set up standard curve of cAMP versus CPM.
The cAMP concentrations (pmol/mL) of unknown samples are calculated from a standard curve of cAMP versus CPM. % inhibition is calculated using the following formula: […]
(Cyclic AMP is a second messenger, typically raised through Gs and lowered through Gi signalling.)
`COCC(=O)NCc1cc(-c2cc(NCCc3ccc(OC)cc3)nc(OC)n2)ccc1F` [Example 28, N-(2-Fluoro-5-{2-methoxy-6-[2-(4-methoxy-phenyl)-ethylamino]-pyrimidin-4-yl}-benzyl)-2-methoxy-acetamide hydrochloride] registered an IC50 of 9 nM.

As for `COc1ccc(C(C)(C)CNc2cc(-c3cccc(OC)c3)nc(OC)n2)cc1` [Example 29, [2-Methoxy-6-(3-methoxy-phenyl)-pyrimidin-4-yl]-[2-(4-methoxy-phenyl)-2-methyl-propyl]-amine], the midpoint of inhibition, the IC50, lay at 792 nM.

`COc1nc(NCCc2c(F)cccc2Cl)cc(-c2ccc(=O)n(Cc3n[nH]c(=O)o3)c2)n1` [Example 33, 5-{6-[2-(2-Chloro-6-fluoro-phenyl)-ethylamino]-2-methoxy-pyrimidin-4-yl}-1-(5-oxo-4,5-dihydro-[1,3,4]oxadiazol-2-ylmethyl)-1H-pyridin-2-one] registered a half-inhibitory concentration (IC50) of 1.2 nM.

Compound `COc1nc(NCCc2c(F)cccc2Cl)cc(-c2cccc(Cc3noc(=O)[nH]3)c2)n1` [Example 34(b), 3-(3-{6-[2-(2-Chloro-6-fluoro-phenyl)-ethylamino]-2-methoxy-pyrimidin-4-yl}-benzyl)-4H-[1,2,4]oxadiazol-5-one hydrochloride] had an IC50 of 1 nM.

`COc1nc(NCCc2c(F)cccc2Cl)cc(-c2cccc(OCc3noc(=O)[nH]3)c2)n1` [Example 34(c), 3-(3-{6-[2-(2-Chloro-6-fluoro-phenyl)-ethylamino]-2-methoxy-pyrimidin-4-yl}-phenoxymethyl)-4H-[1,2,4]oxadiazol-5-one hydrochloride]: the IC50 turned out to be 0.3 nM.

In the case of `COc1nc(NCCc2ccc(OC)c(OC)c2)cc(-c2ccco2)n1` [Example 35(d), [2-(3,4-Dimethoxy-phenyl)-ethyl]-(6-furan-2-yl-2-methoxy-pyrimidin-4-yl)-amine], it took 256 nM to reach half-maximal inhibition (IC50).

As to `COc1nc(NCCc2ccc(OC)c(OC)c2)cc(-c2ccc(-c3ccccc3)cc2)n1` [Example 35(e), (6-Biphenyl-4-yl-2-methoxy-pyrimidin-4-yl)-[2-(3,4-dimethoxy-phenyl)-ethyl]-amine], the IC50 stood at 369 nM.

For the compound `COc1ccc(CCNc2cc(-c3cccc(C(C)=O)c3)nc(OC)n2)cc1` [Example 35(h), 1-(3-{2-Methoxy-6-[2-(4-methoxy-phenyl)-ethylamino]-pyrimidin-4-yl}-phenyl)-ethanone], half-maximal inhibition (IC50) was put at 5 nM.

`COc1ccc(CCNc2cc(-c3ccc(C(C)=O)s3)nc(OC)n2)cc1` [Example 35(m), 1-(5-{2-Methoxy-6-[2-(4-methoxy-phenyl)-ethylamino]-pyrimidin-4-yl}-thiophen-2-yl)-ethanone] came in with an IC50 of 3.8 nM.

Regarding `COc1nc(NCCc2ccc(Cl)cc2)cc(-c2cccc(C(=O)O)c2)n1` [Example 35(n), 3-{6-[2-(4-chlorophenyl)-ethylamino]-2-methoxy-pyrimidin-4-yl}-benzoic acid hydrochloride], the IC50 is 0.6 nM.

`COc1ccc(CCNc2cc(-c3ccc(OC)nc3)nc(OC)n2)cc1` [Example 35(o), [2-Methoxy-6-(6-methoxy-pyridin-3-yl)-pyrimidin-4-yl]-[12-(4-methoxy-phenyl)-ethyl]-amine] had a 50% inhibitory concentration (IC50) of 1.7 nM.

Consider `COc1ccc(CCNc2cc(-c3ccncc3)nc(OC)n2)cc1` [Example 35(q), [2-(4-Methoxy-phenyl)-ethyl]-(2-methoxy-6-pyridin-4-yl-pyrimidin-4-yl)-amine], for which the IC50 was 8 nM.

In turn, `COc1ccc(CCNc2cc(-c3ccccc3O)nc(OC)n2)cc1` [Example 35(r), 2-{2-Methoxy-6-[2-(4-methoxy-phenyl)-ethylamino]-pyrimidin-4-yl}-phenol] came in with a 50% inhibitory concentration (IC50) of 17 nM.

The compound `COc1ccc(CCNc2cc(-c3cccc(CC#N)c3)nc(OC)n2)cc1` [Example 35(s), (3-{2-Methoxy-6-[2-(4-methoxy-phenyl)-ethylamino]-pyrimidin-4-yl}-phenyl)-acetonitrile] displayed a half-maximal inhibitory concentration (IC50) of 6 nM.

In turn, `COc1ccc(CCNc2cc(-c3cccc(C#N)c3)nc(OC)n2)cc1` [Example 35(t), 3-{2-Methoxy-6-[2-(4-methoxy-phenyl)-ethylamino]-pyrimidin-4-yl}-benzonitrile] returned a concentration for half-maximal inhibition (IC50) of 0.9 nM.

Consider `COc1nc(NCCc2c(F)cccc2Cl)cc(-c2cccc(C=O)c2)n1` [Example 35(v), 3-{6-[2-(2-chloro-6-fluoro-phenyl)-ethylamino]-2-methoxy-pyrimidin-4-yl}-benzaldehyde], for which the concentration for half-maximal inhibition (IC50) is 3.6 nM.

The compound `COc1nc(NCCc2ccc(Cl)cc2Cl)cc(-c2cccc(C(=O)O)c2)n1` [Example 35(w), 3-{6-[2-(2,4-dichloro-phenyl)-ethylamino]-2-methoxy-pyrimidin-4-yl}-benzoic acid] showed an IC50 of 0.3 nM.

`COc1ccc(CCNc2cc(-c3cccnc3)nc(OC)n2)cc1` [Example 35(x), [2-methoxy-(6-pyridin-3-yl)-pyrimidin-4-yl]-[2-(4-methoxy-phenyl)-ethyl]-amine] registered a 50% inhibitory concentration (IC50) of 10 nM.

`CCOC(=O)c1cc(-c2cc(NCCc3ccc(OC)cc3)nc(OC)n2)ccc1Cl` [Example 35(z), 2-Chloro-5-{2-methoxy-6-[2-(4-methoxy-phenyl)-ethylamino]-pyrimidin-4-yl}-benzoic acid ethyl ester] gave an IC50 of 32 nM.

In the case of `COc1ccc(CCNc2cc(-c3cccc(-c4nc(C)no4)c3)nc(OC)n2)cc1` [Example 36, {2-Methoxy-6-[3-(3-methyl-[1,2,4]oxadiazol-5-yl)-phenyl]-pyrimidin-4-yl}-[2-(4-methoxy-phenyl)-ethyl]-amine], the half-inhibitory concentration (IC50) was 2.6 nM.

With `COc1ccc(CCNc2cc(-c3cccc(-c4nnc(C)[nH]4)c3)nc(OC)n2)cc1` [Example 37, {2-Methoxy-6-[3-(5-methyl-2H-[1,2,4]triazol-3-yl)-phenyl]-pyrimidin-4-yl}-[2-(4-methoxy-phenyl)-ethyl]-amine], it took 3.7 nM to reach half-maximal inhibition (IC50).

Consider `COc1ccc(CCNc2cc(-c3cccc(-c4cc(C)no4)c3)nc(OC)n2)cc1` [Example 38, {2-Methoxy-6-[3-(3-methyl-isoxazol-5-yl)-phenyl]-pyrimidin-4-yl}-[2-(4-methoxy-phenyl)-ethyl]-amine], for which the half-inhibitory concentration (IC50) was found to be 6 nM.

Turning to `COc1nc(NCCc2ccc(OC)c(F)c2)cc(-c2cccc(-c3nn[nH]n3)c2)n1` [Example 40, [2-(3-Fluoro-4-methoxy-phenyl)-ethyl]-{2-methoxy-6-[3-(2H-tetrazol-5-yl)-phenyl]-pyrimidin-4-yl}-amine], half-maximal inhibition (IC50) required 0.4 nM.

`CCNC(=O)Nc1cccc(-c2cc(NCCc3ccc(OC)cc3)nc(OC)n2)c1` [Example 41, 1-Ethyl-3-(3-{2-methoxy-6-[2-(4-methoxy-phenyl)-ethylamino]-pyrimidin-4-yl}-phenyl)-urea] gave an IC50 of 7.6 nM.

As to `COc1nc(NC(C)Cc2ccc(Cl)cc2)cc(-c2ccc(OC)c(OC)c2)n1` (stereo not drawn) [Example 43(a), [2-(4-Chloro-phenyl)-1-methyl-ethyl]-[6-(3,4-dimethoxy-phenyl)-2-methoxy-pyrimidin-4-yl]-amine], the midpoint of inhibition, the IC50, lay at 1730 nM.

`COc1cccc(-c2cc(NCCc3ccc([N+](=O)[O-])cc3)nc(OC)n2)c1` [Example 43(b), [2-Methoxy-6-(3-methoxy-phenyl)-pyrimidin-4-yl]-[2-(4-nitro-phenyl)-ethyl]-amine] yielded an IC50 of 0.9 nM.

On to `COc1cccc(-c2cc(NCCc3cccs3)nc(OC)n2)c1` [Example 43(e), [2-Methoxy-6-(3-methoxy-phenyl)-pyrimidin-4-yl]-(2-thiophen-2-yl-ethyl)-amine hydrochloride], for which half-maximal inhibition (IC50) required 9.7 nM.

Source of the values: patent US7517889B2, “2,6-substituted-4-monosubstitutedamino-pyrimidine as prostaglandin D2 receptor antagonists” (Aventis Pharmaceuticals, Inc., priority 2004, dated 2009).
